What was measured:
Assay in all cases: relative viability (nuclei count vs DMSO), 5 days (fraction); higher = more cells survive
Wnt-C59 + OSI-027 = compound: CC1=NC=CC(=C1)C2=CC=C(C=C2)CC(=O)NC3=CC=C(C=C3)C4=CN=CC=C4 [Wnt-C59] + COc1cccc2cc(-c3nc([C@H]4CC[C@H](C(=O)O)CC4)n4ncnc(N)c34)[nH]c12 [OSI-027] (partner 0.5 µM)
Procedure, shortened: (§1)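 For relative viability, nuclei counts in treated wells were divided by those in vehicle wells. Lung cancer cell lines had been pin-tool dosed in 1536-well plates the day after seeding and cultured for 5 days, then fixed and stained in one step (final 0.05% Triton X-100, 1% formaldehyde, 1 ug/ml Hoechst) and imaged at 4×. Doses were one drug alone or a fixed anchor-drug dose plus five library-drug doses (not always all listed) in √10 steps, and values are duplicate-plate medians.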

Lapatinib + Pictilisib = compound: CS(=O)(=O)CCNCc1ccc(-c2ccc3ncnc(Nc4ccc(OCc5cccc(F)c5)c(Cl)c4)c3c2)o1 [Lapatinib] + CS(=O)(=O)N1CCN(Cc2cc3nc(-c4cccc5[nH]ncc45)nc(N4CCOCC4)c3s2)CC1 [Pictilisib] (partner 1 µM)
Procedure, shortened: as §1

Wnt-C59 + Pictilisib = compound: CC1=NC=CC(=C1)C2=CC=C(C=C2)CC(=O)NC3=CC=C(C=C3)C4=CN=CC=C4 [Wnt-C59] + CS(=O)(=O)N1CCN(Cc2cc3nc(-c4cccc5[nH]ncc45)nc(N4CCOCC4)c3s2)CC1 [Pictilisib] (partner 1 µM)
Procedure, shortened: as §1

Lapatinib + Linsitinib = compound: CS(=O)(=O)CCNCc1ccc(-c2ccc3ncnc(Nc4ccc(OCc5cccc(F)c5)c(Cl)c4)c3c2)o1 [Lapatinib] + C[C@]1(O)C[C@@H](c2nc(-c3ccc4ccc(-c5ccccc5)nc4c3)c3c(N)nccn32)C1 [Linsitinib] (partner 1 µM)
Procedure, shortened: as §1

Cell Line | relative viability (Wnt-C59 + OSI-027; first compound 0.001 µM) | relative viability (Wnt-C59 + OSI-027; first compound 0.01 µM) | relative viability (Wnt-C59 + OSI-027; first compound 0.03162 µM) | relative viability (Wnt-C59 + OSI-027; first compound 0.1 µM) | relative viability (Lapatinib + Pictilisib; first compound 0.06325 µM) | relative viability (Lapatinib + Pictilisib; first compound 0.2 µM) | relative viability (Lapatinib + Pictilisib; first compound 0.6325 µM) | relative viability (Lapatinib + Pictilisib; first compound 2 µM) | relative viability (Wnt-C59 + Pictilisib; first compound 0.001 µM) | relative viability (Wnt-C59 + Pictilisib; first compound 0.01 µM) | relative viability (Wnt-C59 + Pictilisib; first compound 0.03162 µM) | relative viability (Wnt-C59 + Pictilisib; first compound 0.1 µM) | relative viability (Lapatinib + Linsitinib; first compound 0.06325 µM) | relative viability (Lapatinib + Linsitinib; first compound 0.2 µM) | relative viability (Lapatinib + Linsitinib; first compound 0.6325 µM) | relative viability (Lapatinib + Linsitinib; first compound 2 µM) | relative viability (Lapatinib + Pictilisib; first compound 0.02 µM) | relative viability (Lapatinib + Linsitinib; first compound 0.02 µM)
HOP-62 | 0.743 | 0.813 | 0.788 | 0.852 | 0.66 | 0.76 | 0.816 | 0.672 | 0.63 | 0.76 | 0.855 | 0.693 | 0.923 | 0.91 | 0.857 | 1.01 | – | –
LCLC-103H | 0.458 | 0.533 | 0.527 | 0.498 | 0.555 | 0.695 | 0.636 | 0.494 | 0.663 | 0.62 | 0.634 | 0.651 | 0.978 | 0.998 | 0.955 | 1.08 | – | –
Calu-6 | – | – | – | – | 0.838 | 0.958 | 1.08 | 0.978 | 0.856 | 0.973 | 0.998 | 0.873 | 0.953 | 0.947 | 0.954 | 0.848 | 0.865 | 0.891
NCI-H1650 | 0.756 | 0.569 | 0.645 | 0.647 | 0.415 | 0.672 | 0.663 | 0.503 | 0.549 | 0.53 | 0.645 | 0.532 | – | – | – | – | 0.253 | –
NCI-H1703 | – | – | – | – | 0.213 | 0.228 | 0.32 | 0.275 | 0.22 | 0.218 | 0.324 | 0.273 | 0.642 | 0.888 | 0.512 | 0.662 | 0.231 | 0.695
LK-2 | 0.211 | 0.265 | 0.199 | 0.229 | – | 0.424 | 0.615 | 0.531 | 0.667 | 0.653 | 0.557 | 0.573 | 0.487 | 0.377 | 0.66 | 0.575 | – | 0.704
LCLC-97TM1 | 0.581 | 0.512 | 0.667 | 0.502 | – | 0.223 | 0.227 | 0.203 | 0.23 | 0.231 | 0.211 | 0.187 | – | 0.186 | 0.198 | 0.187 | – | –
NCI-H1793 | 0.189 | – | 0.287 | 0.266 | – | – | 0.368 | 0.318 | 0.215 | 0.22 | 0.3 | 0.444 | – | – | 0.605 | 0.515 | – | –
SW 900 | 0.585 | 0.54 | 0.457 | 0.554 | – | – | – | – | – | – | – | – | – | – | – | – | – | –
SK-MES-1 | 0.673 | 0.54 | 0.666 | 0.567 | 0.3 | 0.235 | 0.257 | 0.199 | 0.392 | 0.368 | 0.305 | 0.322 | 1.01 | 0.97 | 0.69 | 0.663 | 0.36 | 1.12
NCI-H2023 | 0.475 | 0.316 | 0.461 | 0.376 | 0.15 | 0.262 | 0.276 | 0.199 | 0.27 | 0.244 | 0.238 | 0.235 | 0.519 | 0.474 | 0.512 | 0.366 | 0.164 | 0.594
NCI-H1792 | 0.722 | 0.686 | 0.926 | 0.703 | 0.236 | 0.294 | 0.302 | 0.123 | 0.273 | 0.25 | 0.225 | 0.332 | 0.455 | 0.532 | 0.533 | 0.431 | 0.292 | 0.456
NCI-H661 | 0.719 | 0.699 | 0.803 | 0.758 | 0.381 | 0.29 | 0.307 | 0.324 | 0.414 | 0.441 | 0.391 | 0.442 | 0.485 | 0.436 | 0.454 | 0.266 | 0.397 | 0.616
NCI-H1915 | 0.667 | 0.578 | 0.529 | 0.692 | 0.909 | 0.982 | 0.981 | 0.949 | 0.97 | 0.922 | 0.837 | 0.958 | 1.09 | 1.08 | 1.02 | 1.1 | – | –
EPLC-272H | 0.345 | 0.231 | 0.332 | 0.236 | 0.207 | 0.386 | 0.381 | 0.293 | 0.366 | 0.265 | 0.343 | 0.338 | 0.988 | 1.11 | 0.959 | 1.01 | – | –
ChaGo-K-1 | 0.512 | 0.569 | 0.525 | 0.563 | 0.861 | 0.598 | 0.599 | 0.32 | 0.461 | – | 0.862 | 1.02 | – | – | – | – | – | –
NCI-H3122 | 1.02 | 0.978 | 1.32 | 0.891 | 0.481 | 0.636 | 0.603 | 0.751 | 0.61 | 0.642 | 0.626 | 0.518 | 0.954 | 0.996 | 1.04 | 0.999 | 0.564 | 0.996
IA-LM | – | – | – | – | 0.297 | 0.223 | 0.21 | 0.222 | 0.271 | 0.251 | 0.337 | 0.375 | 0.605 | 0.583 | 0.541 | 0.792 | 0.227 | 0.655
EMC-BAC-2 | 0.377 | 0.36 | 0.366 | 0.387 | 0.433 | 0.504 | 0.581 | 0.493 | 0.5 | 0.491 | 0.463 | 0.453 | 0.732 | 0.698 | 0.623 | 0.563 | 0.355 | 0.755
NCI-H522 | 0.683 | 0.654 | 0.742 | 0.784 | – | – | – | – | – | – | – | – | – | – | – | – | – | –
NCI-H1734 | 0.622 | 0.518 | 0.596 | 0.3 | 0.354 | 0.451 | 0.47 | 0.534 | 0.438 | 0.438 | 0.473 | 0.461 | 0.729 | 0.946 | 0.858 | 0.745 | – | –
LC-2-ad | 1.18 | 0.822 | 0.937 | 0.729 | 0.425 | 0.543 | 0.431 | 0.322 | 0.435 | 0.43 | 0.469 | 0.472 | 0.817 | 0.799 | 0.694 | 0.585 | – | –
